Assay results taken from ChEMBL document CHEMBL4014300, “Synthesis and biological evaluation of novel quinazoline-sulfonamides as anti-cancer agents” (Bioorg Med Chem Lett, 2017).
In brackets after ≈: the same amount, converted by molar mass. Activity calls are given as the source filed them. The calls are words filed in the database; no cut-off is given here.

Legend:
[1] = tested on: THP-1; test: Cytotoxicity against human THP1 cells assessed as reduction in cell viability after 24 hrs by MTT assay; assay type: functional, cell-based; conditions: THP-1, 24 h
[2] = tested on: SK-OV-3; test: Cytotoxicity against human SKOV3 cells assessed as reduction in cell viability at 100 ug/ml after 24 hrs by MTT assay; assay type: functional, cell-based
[3] = tested on: DU-145; test: Cytotoxicity against human DU145 cells assessed as reduction in cell viability at 100 ug/ml after 24 hrs by MTT assay; assay type: functional, cell-based
[4] = tested on: U-937; test: Cytotoxicity against human U937 cells assessed as reduction in cell viability at 100 ug/ml after 24 hrs by MTT assay; assay type: functional, cell-based
[5] = tested on: COLO 205; test: Cytotoxicity against human COLO205 cells assessed as reduction in cell viability at 100 ug/ml after 24 hrs by MTT assay; assay type: functional, cell-based
[6] = tested on: FHC; test: Cytotoxicity against human FHC cells assessed as reduction in cell viability at 100 ug/ml after 24 hrs by MTT assay; assay type: cell-based
[7] = tested on: SK-OV-3; test: Cytotoxicity against human SKOV3 cells assessed as reduction in cell viability after 24 hrs by MTT assay; assay type: functional, cell-based; conditions: SK-OV-3, 24 h
[8] = tested on: U-937; test: Cytotoxicity against human U937 cells assessed as reduction in cell viability after 24 hrs by MTT assay; assay type: functional, cell-based; conditions: U-937, 24 h
[9] = tested on: FHC; test: Cytotoxicity against human FHC cells assessed as reduction in cell viability after 24 hrs by MTT assay; assay type: cell-based
[10] = tested on: DU-145; test: Cytotoxicity against human DU145 cells assessed as reduction in cell viability after 24 hrs by MTT assay; assay type: functional, cell-based; conditions: DU-145, 24 h
[11] = tested on: COLO 205; test: Cytotoxicity against human COLO205 cells assessed as reduction in cell viability after 24 hrs by MTT assay; assay type: functional, cell-based; conditions: COLO 205, 24 h
[12] = tested on: THP-1; test: Cytotoxicity against human THP1 cells assessed as reduction in cell viability at 100 ug/ml after 24 hrs by MTT assay; assay type: functional, cell-based

| Structure (SMILES) | IC50 [1] [µg/mL] | Activity [2] | Activity [3] | Activity [4] | Activity [5] | Activity [6] | IC50 [7] [µg/mL] | IC50 [8] [µg/mL] | IC50 [9] [µg/mL] | IC50 [10] [µg/mL] | IC50 [11] [µg/mL] | Activity [12] |
| --- | --- | --- | --- | --- | --- | --- | --- | --- | --- | --- | --- | --- |
| COc1cc2nc(N3CCOCC3)nc(NS(=O)(=O)c3cccc4c3OCO4)c2cc1OC | 71.6 (≈ 151 µM) | inactive | inactive | inactive | inactive | Non-Toxic |  |  |  |  |  |  |
| COc1cc2nc(Cl)nc(NS(=O)(=O)c3cccc4c3OCO4)c2cc1OC | 48.6 (≈ 115 µM) |  | inactive |  | inactive | Non-Toxic | 78.1 (≈ 184 µM) | 89.6 (≈ 211 µM) |  |  |  |  |
| COc1cc2nc(Cl)nc(NS(=O)(=O)c3cccs3)c2cc1OC | 11.2 (≈ 29.1 µM) |  |  |  |  |  | 19.1 (≈ 49.4 µM) | 10.1 (≈ 26.1 µM) | 98.7 (≈ 256 µM) | 16.4 (≈ 42.6 µM) | 27.5 (≈ 71.3 µM) |  |
| COc1cc2nc(Cl)nc(NS(=O)(=O)Cc3ccccc3)c2cc1OC |  | inactive | inactive |  | inactive | Non-Toxic |  | 91.7 (≈ 233 µM) |  |  |  | inactive |
| COc1cc2nc(Cl)nc(NS(=O)(=O)c3ccccc3)c2cc1OC | 8.17 (≈ 21.5 µM) |  |  |  |  |  | 9.23 (≈ 24.3 µM) | 6.06 (≈ 16 µM) | 73 (≈ 192 µM) | 12.3 (≈ 32.5 µM) | 19 (≈ 50.1 µM) |  |
| COc1cc2nc(N3CCOCC3)nc(NS(=O)(=O)C3CC3)c2cc1OC | 13.8 (≈ 34.9 µM) |  |  |  |  |  | 32.1 (≈ 81.5 µM) | 8.09 (≈ 20.5 µM) | 73.2 (≈ 186 µM) | 25.1 (≈ 63.5 µM) | 49.1 (≈ 124 µM) |  |
| COc1cc2nc(Cl)nc(NS(=O)(=O)c3cccc4ccccc34)c2cc1OC | 82.4 (≈ 192 µM) |  |  |  | inactive | Non-Toxic | 95.3 (≈ 222 µM) | 35.3 (≈ 82 µM) |  | 63.6 (≈ 148 µM) |  |  |
| COc1cc2nc(N3CCOCC3)nc(NS(=O)(=O)c3ccc(C)cc3)c2cc1OC | 92.5 (≈ 208 µM) | inactive |  | inactive |  | Non-Toxic |  |  |  | 51.3 (≈ 115 µM) | 44.2 (≈ 99.4 µM) |  |
| COc1cc([C@@H]2c3cc4c(cc3[C@@H](O[C@@H]3O[C@@H]5CO[C@@H](C)O[C@H]5[C@H](O)[C@H]3O)[C@H]3COC(=O)[C@H]23)OCO4)cc(OC)c1O [ETOPOSIDE] | 4.42 (≈ 7.51 µM) |  |  |  |  |  | 3.84 (≈ 6.52 µM) | 2.89 (≈ 4.91 µM) | 49.3 (≈ 83.8 µM) | 6.17 (≈ 10.5 µM) | 5.12 (≈ 8.7 µM) |  |
| COc1cc2nc(Cl)nc(NS(=O)(=O)c3ccc(C)cc3)c2cc1OC | 33.5 (≈ 85.2 µM) | inactive |  |  |  | Non-Toxic |  | 39.9 (≈ 101 µM) |  | 44.2 (≈ 112 µM) | 91.3 (≈ 232 µM) |  |
| COc1cc2nc(N3CCCC3)nc(NS(=O)(=O)C3CC3)c2cc1OC | 9.13 (≈ 24.1 µM) |  |  |  |  |  | 17.6 (≈ 46.4 µM) | 6.43 (≈ 17 µM) | 66.6 (≈ 176 µM) | 11.1 (≈ 29.3 µM) | 10.2 (≈ 26.8 µM) |  |
| COc1cc2nc(Cl)nc(NS(=O)(=O)C3CC3)c2cc1OC |  | inactive | inactive | inactive | inactive | Non-Toxic |  |  |  |  |  | inactive |
| COc1ccc(S(=O)(=O)Nc2nc(Cl)nc3cc(OC)c(OC)cc23)cc1 |  | inactive | inactive | inactive | inactive | Non-Toxic |  |  |  |  |  | inactive |
| COc1cc2nc(Cl)nc(NS(=O)(=O)c3cccc(C(F)(F)F)c3)c2cc1OC | 36.4 (≈ 81.3 µM) |  |  |  |  | Non-Toxic | 32.3 (≈ 72.1 µM) | 59 (≈ 132 µM) |  | 23.1 (≈ 51.5 µM) | 99 (≈ 221 µM) |  |
| COc1cc2nc(N3CCOCC3)nc(NS(=O)(=O)c3cccc(C(F)(F)F)c3)c2cc1OC | 38.8 (≈ 77.9 µM) |  |  |  |  | Non-Toxic | 50.5 (≈ 101 µM) | 28.7 (≈ 57.6 µM) |  | 45.8 (≈ 91.8 µM) | 61.8 (≈ 124 µM) |  |
| COc1cc2nc(N3CCCC3)nc(NS(=O)(=O)c3cccs3)c2cc1OC |  | inactive | inactive | inactive | inactive | Non-Toxic |  |  |  |  |  | inactive |
| COc1cc2nc(Cl)nc(NS(C)(=O)=O)c2cc1OC | 99.7 (≈ 314 µM) |  | inactive | inactive | inactive |  | 88 (≈ 277 µM) |  | 88.1 (≈ 277 µM) |  |  |  |
| COc1cc2nc(Cl)nc(NS(=O)(=O)Cc3cccc(I)c3)c2cc1OC | 96.2 (≈ 185 µM) | inactive | inactive |  | inactive | Non-Toxic |  | 66.5 (≈ 128 µM) |  |  |  |  |
| COc1cc2nc(N3CCCC3)nc(NS(=O)(=O)c3cccc(C(F)(F)F)c3)c2cc1OC | 15.9 (≈ 32.9 µM) |  |  |  |  | Non-Toxic | 22.1 (≈ 45.9 µM) | 16 (≈ 33.2 µM) |  | 65.1 (≈ 135 µM) | 78 (≈ 162 µM) |  |
| COc1ccc(S(=O)(=O)Nc2nc(Cl)nc3cc(OC)c(OC)cc23)cc1C | 79 (≈ 186 µM) |  |  |  |  | Non-Toxic | 68.1 (≈ 161 µM) | 41.1 (≈ 96.9 µM) |  | 39.5 (≈ 93.1 µM) | 57 (≈ 134 µM) |  |
| COc1cc2nc(N3CCCC3)nc(NS(=O)(=O)c3ccc(C)cc3)c2cc1OC | 7.06 (≈ 16.5 µM) |  |  |  |  |  | 20 (≈ 46.7 µM) | 8.61 (≈ 20.1 µM) | 48.1 (≈ 112 µM) | 14.1 (≈ 33 µM) | 24.1 (≈ 56.3 µM) |  |
| COc1cc2nc(Cl)nc(NS(=O)(=O)c3ccc(C)cc3C)c2cc1OC | 40.4 (≈ 99.1 µM) |  |  |  |  |  | 25.8 (≈ 63.2 µM) | 65.1 (≈ 160 µM) | 73.1 (≈ 179 µM) | 47.8 (≈ 117 µM) | 49 (≈ 120 µM) |  |
